Two compounds from US11040976B2, “Substrate selective inhibitors of insulin-degrading enzyme (IDE) and uses thereof” (President and Fellows of Harvard College, priority 2015, dated 2021) can be followed below.

Test [1] concerns the target T1, recombinant human IDE42-1019 (Homo sapiens, UniProt P14735).
T1 construct: recombinant human IDE42-1019 (R&D Systems); purchased R&D Systems
T1 sequence (P14735 42-1019): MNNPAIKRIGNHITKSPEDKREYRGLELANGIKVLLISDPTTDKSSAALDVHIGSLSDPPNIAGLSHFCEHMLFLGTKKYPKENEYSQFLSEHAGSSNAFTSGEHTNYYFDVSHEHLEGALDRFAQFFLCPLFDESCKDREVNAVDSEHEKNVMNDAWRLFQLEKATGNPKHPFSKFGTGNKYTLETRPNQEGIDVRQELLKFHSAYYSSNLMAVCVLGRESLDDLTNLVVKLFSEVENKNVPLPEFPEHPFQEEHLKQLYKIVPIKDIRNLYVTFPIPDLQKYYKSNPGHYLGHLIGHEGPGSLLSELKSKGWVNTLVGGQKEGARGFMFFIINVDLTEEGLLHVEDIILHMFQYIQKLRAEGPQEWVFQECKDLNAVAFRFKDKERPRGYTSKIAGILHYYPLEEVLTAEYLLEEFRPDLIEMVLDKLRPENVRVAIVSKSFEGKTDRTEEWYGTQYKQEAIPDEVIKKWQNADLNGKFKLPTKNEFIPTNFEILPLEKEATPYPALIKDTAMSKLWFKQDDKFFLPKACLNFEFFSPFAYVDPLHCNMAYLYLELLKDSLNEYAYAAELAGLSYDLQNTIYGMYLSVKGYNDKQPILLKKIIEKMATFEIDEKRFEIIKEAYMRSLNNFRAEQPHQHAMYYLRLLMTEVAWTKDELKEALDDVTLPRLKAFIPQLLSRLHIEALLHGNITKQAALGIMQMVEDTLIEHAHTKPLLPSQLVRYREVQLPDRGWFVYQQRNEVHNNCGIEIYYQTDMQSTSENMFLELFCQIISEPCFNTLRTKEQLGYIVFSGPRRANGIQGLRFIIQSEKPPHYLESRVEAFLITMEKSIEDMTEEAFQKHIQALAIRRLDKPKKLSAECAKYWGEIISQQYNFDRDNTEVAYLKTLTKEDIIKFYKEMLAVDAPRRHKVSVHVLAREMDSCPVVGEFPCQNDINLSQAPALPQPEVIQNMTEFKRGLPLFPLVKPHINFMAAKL
As to the kind of experiment: Protease assay with fluorogenic peptide substrate Mca-[…](Dnp)-OH. It counts as biochemical. The note with it: for IC50: fluorogenic peptide Mca-RPPGFSAFK(Dnp)-OH, apparent IC50 for compounds with submaximal inhibition, read-out: IC50 (μM) Proteolysis.

The target of test [2] is T2, Human N-His6-IDE42-1019 (E. coli expressed) (Homo sapiens, UniProt P14735).
T2 construct: Human N-His6-IDE42-1019 (E. coli expressed); made in house; host or cells: E. coli (Rosetta 2 (DE3) pLysS, plasmid pTrcHis-A)
T2 sequence (P14735 42-1019): T1 sequence (P14735 42-1019)
As to the kind of experiment: Fluorescence anisotropy high-throughput screening assay (displacement of probe FL-6b). It is filed as binding. As to conditions: final compound concentration 20 μM (6bK control 1 μM); values without asterisk. The method, boiled down:
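Compounds at 20 μM final were added to 0.5 μM enzyme with fluorescein-labelled macrocycle probe ([…]) in 50 mM Tris pH 8.0, 1 M NaCl, 25 °C. Anisotropy (ex 492/em 523 nm) was read after 30 min in duplicate. Z-scores were calculated against plate DMSO controls.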
A general note: In fluorescence polarisation assays a small probe gives low polarisation when free and higher when bound to something large.

Each structure is given as a SMILES string.

As usually defined, the IC50 is the midpoint of a concentration-inhibition curve.

With `NCCCC[C@@H]1NC(=O)/C=C/C(=O)N[C@H](C(N)=O)CCCCNC(=O)[C@@H](Cc2ccc(C(=O)c3ccccc3)cc2)NC(=O)[C@H](CC2CCCCC2)NC1=O` [6bK, reference compound], the IC50 in test [1] came out at 0.05 µM. The Emax in test [1] (read-out: Imax (%) Proteolysis (inhibition maximum), fluorogenic peptide Mca-RPPGFSAFK(Dnp)-OH, plateau at high inhibitor concentration) came to 100%. In test [2], the “Average Z-score (Fluorescence anisotropy)” value is −24.52.

As to `Cc1cccc(-c2ccc([C@@H]3[C@@H](CO)N4CCCCN(S(=O)(=O)c5ccccc5C)C[C@@H]34)cc2)c1` [compound 297], in test [1], the half-inhibitory concentration (IC50) was found to be 0.25 µM. In test [2], the “Average Z-score (Fluorescence anisotropy)” value was −20.26.
